Source: patent US7662813B2, “Triazole compounds that modulate HSP90 activity” (Synta Pharmaceuticals Corp., priority 2005, dated 2010)

What was measured:
[1] = system: c-kit; assay: Western blot analysis of c-Kit in Kasumi-1 cells; format: cell-based
Protocol: The results of the FACS analysis were confirmed with Western blot analysis (see FIG. 2). […] In contrast, 17-AAG had no effect of c-Kit protein levels at either 100 nM or 400 nM.

[2] = system: c-kit; assay: FACS-based c-kit degradation assay in Kasumi-1 cells; format: cell-based; details: about 18 h
Protocol: Leukemia cell line, Kasumi-1, was used for testing c-kit degradation induced by Hsp90 inhibitors of the invention. The cells (3×10^5 per well) were treated with 17AAG (0.5 μM) or Compound 11 (0.05 μM or 0.5 μM) for about 18 h. The cells were collected and centrifuged (SORVALL RT 6000D) at 1200 rpm for 5 min. The supernatants were discarded, and the cells were washed one time with 1×PBS. After centrifugation the cells were stained with FITC conjugated c-kit antibody (MBL International, Cat# K0105-4) in […] 1×PBS at 4° C. for 1 h. The samples were read and analyzed with FACSCalibur flow cytometer (Becton Dicknson).

[3] = system: Her2; assay: Degradation of Her2 in BT-474 cells (Method 1, Western blot); format: cell-based, human; details: 0.5 μM, overnight
Protocol: Human high-Her2 breast carcinoma BT474 (HTB-20), SK-BR-3 (HTB-30) and MCF-7 breast carcinoma (HTB-22) from American Type Culture Collection, VA, USA were grown in Dulbecco's modified Eagle's medium with 4 mM L-glutamine and antibiotics (100 IU/ml penicillin and 100 ug/ml streptomycine; GibcoBRL). To obtain exponential cell growth, cells were trypsinized, counted and seeded at a cell density of 0.5×10^6 cells /ml regularly, every 3 days. All experiments were performed on day 1 after cell passage.
BT-474 cells are treated with 0.5 μM, 2 μM, or 5 μM of 17AAG (a positive control) or 0.5 μM, 2 μAM, or 5 μM of a compound of the invention overnight in DMEM medium. After treatment, each cytoplasmic sample is prepared from 1×10^6 cells by incubation of cell lysis buffer (#9803, cell Signaling Technology) on ice for 10 minutes. The resulting supernatant used as the cytosol fractions is dissolved with sample buffer for SDS-PAGE and run on a SDS-PAGE gel, blotted onto a nitrocellulose membrane by using semi-dry transfer. Non-specific binding to nitrocellulose is blocked with 5% skim milk in TBS with 0.5% Tween at room temperature for 1 hour, then probed with anti-Her2/ErB2 mAb (rabbit IgG, #2242, Cell Signaling) and anti-Tubulin (T9026, Sigmna) as housekeeping control protein. […]

CCN(C)c1cc(-n2c(S)nnc2-c2cc(C(C)C)c(O)cc2O)ccc1OC [Compound 12, 4-(4-(3-(N-methyl-N-ethylamino)-4-methoxy-phenyl)-5-mercapto-4H-1,2,4-triazol-3-yl)-6-isopropylbenzene-1,3-diol]
Degradation of c-Kit (Western blot) ([1]; 100 nM): induced the degradation of c-Kit | Degradation of c-Kit (Western blot) ([1]; 400 nM): induced the degradation of c-Kit

C=CCNC1=C2C[C@@H](C)C[C@H](OC)[C@H](O)[C@@H](C)/C=C(\C)[C@H](OC(N)=O)[C@@H](OC)/C=C\C=C(/C)C(=O)NC(=CC1=O)C2=O [Compound 17AAG, reference compound]
Degradation of c-Kit (Western blot) ([1]; 100 nM): no effect | Degradation of c-Kit (Western blot) ([1]; 400 nM): no effect | c-kit degradation (FACS) ([2]; 0.5 μM): could not induce c-kit degradation | Degradation of Her2 [3]: partial degradation of Her2

CCCN(C)c1cc(-n2c(S)nnc2-c2cc(C(C)C)c(O)cc2O)ccc1OC [Compound 11, 4-(4-(3-(N-methyl-N-propylamino)-4-methoxyphenyl)-5-mercapto-4H-1,2,4-triazol-3-yl)-6-isopropylbenzene-1,3-diol]
Degradation of c-Kit (Western blot) ([1]; 100 nM): induced the degradation of c-Kit | Degradation of c-Kit (Western blot) ([1]; 400 nM): induced the degradation of c-Kit | c-kit degradation (FACS) ([2]; 0.05 μM): induced c-kit degradation | c-kit degradation (FACS) ([2]; 0.5 μM): induced c-kit degradation
